According to US8980906B2, “Pyridonemorphinan analogs and biological activity on opioid receptors” (Purdue Pharma L.P., priority 2012, dated 2015):
Like-named read-outs stand apart in the source and are kept apart here.

Tests used:
κ-opioid receptor [1] = molecular target: T1, κ-opioid receptor (Homo sapiens (Human), UniProt P41145); experiment: κ-opioid receptor [35S]GTPγS functional assay, HEK-293 or CHO cells; type: biochemical
Protocol: κ-Opioid Receptor Functional Assay Procedures: Functional [^35S]GTPγS binding assays were conducted as follows. κ opioid receptor membrane solution was prepared by sequentially adding final concentrations of 0.026 μg/μl κ membrane protein (in-house), 10 μg/mL saponin, 3 μM GDP and 0.20 nM [^35S]GTPγS to binding buffer (100 mM NaCl, 10 mM MgCl2, 20 mM HEPES, pH 7.4) on ice. The prepared membrane solution (190 μl/well) was transferred to 96-shallow well polypropylene plates containing 10 μl of 20× concentrated stock solutions of agonist prepared in DMSO. Plates were incubated for 30 min at a temperature of about 25° C. with shaking. Reactions were terminated by rapid filtration onto 96-well Unifilter GF/B filter plates (Perkin Elmer, Shelton, Conn.) using a 96-well tissue harvester (Packard) and followed by three filtration washes with 200 μl ice-cold binding buffer (10 mM NaH2PO4, 10 mM Na2HPO4, pH 7.4). Filter plates were subsequently dried at 50° C. for 2-3 hours. Fifty μl/well scintillation cocktail (Perkin Elmer, Shelton, Conn.) was added and plates were counted in a Packard Top-Count for 1 min/well.
κ-Opioid Receptor Functional Data: κ GTP EC50 is the concentration of a compound providing 50% of the maximal response for the compound at a κ receptor.
κ GTP Emax (%) is the maximal effect elicited by a compound relative to the effect elicited by U69,593.
(§1) In TABLE 2, activity response of certain Compounds of the Invention to the μ-, δ- and κ-opioid receptors was determined as described above for functional assays using HEK-293 or CHO cells.

μ-opioid receptor [2] = molecular target: T2, μ-opioid receptor (Homo sapiens (Human), UniProt P35372); experiment: μ-opioid receptor [35S]GTPγS functional assay, HEK-293 or CHO cells; type: biochemical
Protocol: μ-Opioid Receptor Functional Assay Procedures: [^35S]GTPγS functional assays were conducted using freshly thawed μ-receptor membranes prepared in-house from a cell line expressing recombinant μ opioid receptor in a HEK-293, CHO or U-2 OS cell background, or purchased from a commercial source (Perkin Elmer, Shelton, Conn.; or DiscovRx, Fremont, Calif.). Assay reactions were prepared by sequentially adding the following reagents to binding buffer (100 mM NaCl, 10 mM MgCl2, 20 mM HEPES, pH 7.4) on ice (final concentrations indicated): membrane protein (0.026 mg/mL), saponin ([…]), GDP ([…]) and [^35S]GTPγS (0.20 nM; Perkin Elmer, Shelton, Conn.). The prepared membrane solution (190 μl/well) was transferred to 96-shallow well polypropylene plates containing 10 μl of 20× concentrated stock solutions of the agonist [D-Ala^2, N-methyl-Phe^4 Gly-ol^5]-enkephalin (DAMGO) prepared in dimethyl sulfoxide (DMSO). Plates were incubated for 30 min at about 25° C. with shaking. Reactions were terminated by rapid filtration onto 96-well Unifilter GF/B filter plates (Perkin Elmer, Shelton, Conn.) using a 96-well tissue harvester (Perkin Elmer, Shelton, Conn.) followed by three filtration washes with 200 μl of ice-cold wash buffer (10 mM NaH2PO4, 10 mM Na2HPO4, pH 7.4). Filter plates were subsequently dried at 50° C. for 2-3 hours. BetaScint scintillation cocktail (Perkin Elmer, Shelton, Conn.) was added (50 μl/well) and plates were counted using a Packard Top-Count for 1 min/well. Data were analyzed using the sigmoidal dose-response curve fitting functions in GraphPad PRISM v. 3.0, or an in-house function for non-linear, sigmoidal dose-response curve-fitting.
μ-Opioid Receptor Functional Data: μ GTP EC50 is the concentration of a compound providing 50% of the maximal response for the compound at a μ-opioid receptor.
μ GTP Emax (%) is the maximal effect elicited by a compound relative to the effect elicited by DAMGO, a standard μ agonist. Generally, the μ GTP Emax (%) value measures the efficacy of a compound to treat or prevent pain or other Conditions.
as §1

κ-opioid receptor [3] = molecular target: T1, κ-opioid receptor; experiment: κ-opioid receptor radioligand dose-displacement binding assay ([3H]-U69,593); conditions: binding affinity, [3H]-U69,593 displacement
Protocol: κ-Opioid Receptor Binding Assay Procedures: Membranes from HEK-293 cells, CHO or U-2 OS cells expressing the recombinant human kappa opioid receptor (κ) were prepared by lysing cells in ice cold hypotonic buffer (2.5 mM MgCl2, 50 mM HEPES, pH 7.4) (10 mL/10 cm dish) followed by homogenization with a tissue grinder/Teflon pestle. Membranes were collected by centrifugation at 30,000×g for 15 min at 4° C. and pellets were resuspended in hypotonic buffer to a final concentration of 1-3 mg/mL. Protein concentrations were determined using the BioRad protein assay reagent with bovine serum albumen as standard, Aliquots of κ receptor membranes were stored at […].
Radioligand dose displacement assays used 0.4 nM [^3H]-U69,593 (GE Healthcare, Piscataway, N.J.; 40 Ci/mmole) with 15 μg membrane protein (recombinant κ opioid receptor expressed in HEK 293 cells; in-house prep) in a final volume of 200 μl binding buffer (5% DMSO, 50 mM Trizma base, pH 7.4). Non-specific binding was determined in the presence of 10 μM unlabeled naloxone or U69,593. All reactions were performed in 96-well polypropylene plates for 1 hour at a temperature of about 25° C. Binding reactions were terminated by rapid filtration onto 96-well Unifilter GF/C filter plates (Perkin Elmer, Shelton, Conn.) presoaked in 0.5% polyethylenimine (Sigma). Harvesting was performed using a 96-well tissue harvester (Perkin Elmer, Shelton, Conn.) followed by five filtration washes with 200 μl ice-cold binding buffer. Filter plates were subsequently dried at 50° C. for 1-2 hours. Fifty μl/well scintillation cocktail (Perkin Elmer, Shelton, Conn.) was added and plates were counted in a Packard Top-Count for 1 min/well.

μ-opioid receptor [4] = molecular target: T2, μ-opioid receptor; experiment: μ-opioid receptor radioligand dose-displacement binding assay ([3H]-diprenorphine); conditions: binding affinity
Protocol: μ-Opioid Receptor Binding Assay Procedures: Radioligand dose-displacement binding assays for μ-opioid receptors used 0.3 nM [^3H]-diprenorphine (Perkin Elmer, Shelton, Conn.), with […] membrane protein/well in a final volume of 500 μl binding buffer (10 mM MgCl2, 1 mM EDTA, 5% DMSO, 50 mM HEPES, pH 7.4). Reactions were carried out in the absence or presence of increasing concentrations of unlabeled naloxone. All reactions were conducted in 96-deep well polypropylene plates for 2 hours at room temperature. Binding reactions were terminated by rapid filtration onto 96-well Unifilter GF/C filter plates (Perkin Elmer, Shelton, Conn.), presoaked in 0.5% polyethylenimine using a 96-well tissue harvester (Perkin Elmer, Shelton, Conn.) followed by performing three filtration washes with 500 μl of ice-cold binding buffer. Filter plates were subsequently dried at 50° C. for 2-3 hours. BetaScint scintillation cocktail (Perkin Elmer, Shelton, Conn.) was added (50 μl/well), and plates were counted using a Packard Top-Count for 1 min/well. The data were analyzed using the one-site competition curve fitting functions in GraphPad PRISM™ v. 3.0 or higher (San Diego, Calif.), or an in-house function for one-site competition curve-fitting.

[5] = relative to U69,593, HEK-293 or CHO cells
[6] = relative to DAMGO, HEK-293 or CHO cells
[7] = [3H]-diprenorphine displacement, read-out: Ki (nM) Opioid Receptor μ

SMILES | EC50 (κ-opioid receptor [1]) [µM] | EC50 (μ-opioid receptor [2]) [nM] | Ki (κ-opioid receptor [3]) [nM] | also measured
COc1ccc2c(c1)[C@]13CCN(CC4CC4)[C@H](C2)[C@]1(O)Cc1cc(C(N)=O)c(=O)[nH]c1C3 [Compound 4, (6R,6aS,12aR)-15-(cyclopropylmethyl)-6a-hydroxy-2-methoxy-10-oxo-6,6a,7,10,11,12-hexahydro-5H-6,12a-(epiminoethano)naphtho[2,1-g]quinoline-9-carboxamide] | 5.38 ± 0.489 | > 20000 | 292 ± 17 | Emax (κ-opioid receptor [1]; [5]): 39.7 ± 5.78%
COc1ccc2c(c1)[C@]13CCN(CC4CC4)[C@H](C2)[C@@H]1Cc1cc(C(N)=O)c(=O)[nH]c1C3 [Compound 6, (6R,6aR,12aS)-15-(cyclopropylmethyl)-2-methoxy-10-oxo-6,6a,7,10,11,12-hexahydro-5H-6,12a-(epiminoethano)naphtho[2,1-g]quinoline-9-carboxamide] | 2.98 ± 0.587 | 528 ± 121 | 35.7 ± 2.74 | Emax (κ-opioid receptor [1]; [5]): 59.3 ± 2.33%; Emax (μ-opioid receptor [2]; [6]): 19.7 ± 2.02%
COc1ccc2c(c1)[C@]13CCN(CC4CC4)[C@H](C2)[C@@H]1Cc1cc(C(=O)O)c(=O)[nH]c1C3 [Compound 10, (6R,6aR,12aS)-15-(cyclopropylmethyl)-2-methoxy-10-oxo-6,6a,7,10,11,12-hexahydro-5H-6,12a-(epiminoethano)naphtho[2,1-g]quinoline-9-carboxylic acid] |  |  | 183 ± 23.3 | EC50 (κ-opioid receptor [1]; GTPγS, HEK-293 or CHO cells, read-out: κ EC50): 3.49 ± 0.636 µM; κ Emax (%) (κ-opioid receptor [1]; [5]): 37.75 ± 1.70%; EC50 (μ-opioid receptor [2]; GTPγS, HEK-293 or CHO cells, read-out: μ EC50): 225 ± 89.6 nM; μ Emax (%) (μ-opioid receptor [2]; [6]): 25.67 ± 0.88%
NC(=O)CNC(=O)c1cc2c([nH]c1=O)C[C@]13CCN(CC4CC4)[C@H](Cc4ccc(O)cc41)[C@]3(O)C2 [Compound 14, (6R,6aS,12aR)—N-(2-amino-2-oxoethyl)-15-(cyclopropylmethyl)-2,6a-dihydroxy-10-oxo-6,6a,7,10,11,12-hexahydro-5H-6,12a-(epiminoethano)naphtho[2,1-g]quinoline-9-carboxamide] | > 20 | > 20000 | 1.53 ± 0.26 | 
C[C@H](NC(=O)c1cc2c([nH]c1=O)C[C@]13CCN(CC4CC4)[C@H](Cc4ccc(O)cc41)[C@]3(O)C2)C(N)=O [Compound 16] | > 20 | 6.44 ± 0.41 | 1.05 ± 0.22 | Emax (μ-opioid receptor [2]; [6]): 14.7 ± 3.28%
NC(=O)[C@H](Cc1ccccc1)NC(=O)c1cc2c([nH]c1=O)C[C@]13CCN(CC4CC4)[C@H](Cc4ccc(O)cc41)[C@]3(O)C2 [Compound 17, (6R,6aS,12aR)—N—((S)-1-amino-1-oxo-3-phenylpropan-2-yl)-15-(cyclopropylmethyl)-2,6a-dihydroxy-10-oxo-6,6a,7,10,11,12-hexahydro-5H-6,12a-(epiminoethano)naphtho[2,1-g]quinoline-9-carboxamide] | > 20 | > 20000 | 0.85 ± 0.15 | Emax (μ-opioid receptor [2]; [6]): -0.33 ± 0.67%
NC(=O)[C@@H]1CCCN1C(=O)c1cc2c([nH]c1=O)C[C@]13CCN(CC4CC4)[C@H](Cc4ccc(O)cc41)[C@]3(O)C2 [Compound 19, (S)-1-((6R,6aS,12aR)-15-(cyclopropylmethyl)-2,6a-dihydroxy-10-oxo-6,6a,7,10,11,12-hexahydro-5H-6,12a-(epiminoethano)naphtho[2,1-g]quinoline-9-carbonyl)pyrrolidine-2-carboxamide] | > 20 | > 20000 | 0.97 ± 0.23 | 
NC(=O)C[C@H](NC(=O)c1cc2c([nH]c1=O)C[C@]13CCN(CC4CC4)[C@H](Cc4ccc(O)cc41)[C@]3(O)C2)C(N)=O [Compound 20, (S)-2-((6R,6aS,12aR)-15-(cyclopropylmethyl)-2,6a-dihydroxy-10-oxo-6,6a,7,10,11,12-hexahydro-5H-6,12a-(epiminoethano)naphtho[2,1-g]quinoline-9-carboxamido)succinamide] | > 20 | > 20000 | 2.59 ± 0.99 | 
COC(=O)c1cc2c([nH]c1=O)C[C@]13CCN(C)[C@H](Cc4ccc(OC)cc41)[C@]3(O)C2 [Compound 27, (6R,6aS,12aR)-methyl 15-(methyl)-6a-hydroxy-2-methoxy-10-oxo-6,6a,7,10,11,12-hexahydro-5H-6,12a-(epiminoethano)naphtho[2,1-g]quinoline-9-carboxylate] |  |  | 3080 ± 128 | Ki (μ-opioid receptor [4]; bound given in μM, read-out: Ki Opioid Receptor μ): > 20 µM
COc1ccc2c(c1)[C@]13CCN(C)[C@H](C2)[C@]1(O)Cc1cc(C(N)=O)c(=O)[nH]c1C3 [Compound 28, (6R,6aS,12aR)-15-(methyl)-6a-hydroxy-2-methoxy-10-oxo-6,6a,7,10,11,12-hexahydro-5H-6,12a-(epiminoethano)naphtho[2,1-g]quinoline-9-carboxamide] |  |  | 12300 | Ki (μ-opioid receptor [4]; [7]): 14.4 ± 4.14 µM
CN1CC[C@]23Cc4[nH]c(=O)c(C(N)=O)cc4C[C@@]2(O)[C@H]1Cc1ccc(O)cc13 [Compound 29, (6R,6aS,12aR)-15-(methyl)-2,6a-dihydroxy-10-oxo-6,6a,7,10,11,12-hexahydro-5H-6,12a-(epiminoethano)naphtho[2,1-g]quinoline-9-carboxamide] |  |  | 25.3 ± 4.86 | Ki (μ-opioid receptor [4]; [7]): 0.651 ± 0.101 µM
